According to US20230101768A1, “METHOD TO TREAT MANGANESE TOXICITY AND MANGANESE-INDUCED PA[…] HUMANS” (priority 2021, published 2023):

Tests used:
Format in all cases: cell-based, human
[1] = system: HIF1α
Source text: (§1) qRT-PCR analyses in HepG2 cells stably infected with scramble shRNAs or shRNAs targeting HIF1α, HIF2α, HIF1β/ARNT or HIF1α+HIF2α. Expression in respective scramble shRNA control cells was normalized to 1. Scramble shRNA sequence 1 was used for the HIF1α shRNA assay (single knockdown). Scramble shRNA sequence 2 was used for the other experiments, including HIF1α+HIF2α double knockdown. N=3-4. Except HIF1β/ARNT shRNAs, p<0.05 by t-test in comparison with respective scramble shRNA. […] N.S.—not significant.
(§2) ShRNA sequences targeting HIF1α, HIF2α, or HIF1β/ARNT (Table 3) were obtained from the MISSION® TRC shRNA library (Sigma) or were previously described (103). Scramble shRNA sequence 1 was from the MISSION® TRC shRNA library while scramble shRNA sequence 2 (Table 3) has been previously reported (104). These sequences were sub-cloned into the lentivirus transfer plasmid pLKO.1 vector (Addgene #8453).
(§3) Lentiviral infections. Stable cells were generated by lentivirus infection essentially as described by us previously (49, 98). Briefly, lentivirus was produced in HEK293T cells by co-transfecting transfer plasmids described above with plasmids coding for a third generation packing system that is routinely used (pRSV-Rev, pRRE, and pCMV-VSVG) (49, 98). Viral supernatants were collected 40-48 h post-transfection. […]
(§4) Quantitative RT-PCR assays.

[2] = system: HIF2α
Source text: as §1, §2, §3, §4

[3] = system: SLC30A10; conditions: HepG2 cells
Method: (§5) Cells were treated with 0 or 250 μM manganese for 4 h, and gene expression was analyzed by qRT-PCR. For each transcript, expression without manganese treatment was normalized to 1. N=4. Data are mean±SE.
(§6) Cell culture. HepG2 cells were grown in Eagle's modified essential medium (MEM; Corning) with 10% fetal bovine serum (Atlanta Biologicals), 100 IU/ml penicillin (Corning), and 100 μg/ml streptomycin (Corning). 293T cells were maintained in Dulbecco's modified essential medium/F12 (Thermo) supplemented with 10% fetal bovine serum, penicillin (100 IU/ml), and streptomycin (100 μg/ml). Human primary hepatocytes were purchased from XenoTech (catalog #HPCH10+) and cultured according to protocols provided by the supplier.
(§7) manganese and drug treatments in cell culture. Cells were treated with indicated levels of manganese as manganeseCl2.4H2O (Fisher). Vehicle for manganese treatment was water. Prolyl hydroxylase inhibitors roxadustat (Caymen), vadadustat, and molidustat (both APE-Bio); the HIFα inhibitor LW6 (Selleckchem); the proteasomal inhibitor MG132 (Sigma); and the transcription inhibitor actinomycin D (Sigma) were dissolved in DMSO. […] Vehicle treatment for all drugs was DMSO.
(§8) Quantitative RT-PCR assays. RNA extraction from HepG2 cells and mouse tissue, reverse transcription to cDNA, and qRT-PCR analyses were performed as described by us previously (47, 50). For analyses of mouse brain samples, a part of the midbrain, including the basal ganglia, was used. Transcript levels were quantified using the ΔΔCT method with 18S (in mice) or TBP (in HepG2 cells) as the internal control, also as described by us previously (47, 50).

[4] = system: VEGF; conditions: HepG2 cells, 250 μM manganese for 4 h; expression without manganese normalized to 1; mean±SE, N=4
Method: as §5, §6, §7, §8

[5] = system: HIF1α; conditions: HepG2 cells, 250 μM manganese; evident at 4 hours, baseline by 24 h
Method: as §7
(§9) Immunoblots. HepG2 cells were cultured in 35 mm dishes, treated with or without manganese, MG132 and/or prolyl hydroxylase inhibitors, and scrapped using 200 μl of RIPA buffer (50 mM Tris-HCl, pH7.4; 150 mM NaCl; 1Mm EDTA; 1% Triton; 0.25% sodium deoxycholate; protease inhibitors cocktail (Thermo A32953)). Whole-cell lysates were prepared by adding loading buffer (50 mM Tris-HCl, pH 7.4; 2% sodium dodecyl sulfate; 10% glycerol, 0.1 M dithiothreitol; 0.01% (weight/volume) bromophenol blue) and boiling the samples for 5 min. Equal volumes of samples were loaded per lane. Further processing was as described by us previously (47). Images were quantified using ImageQuant TL software (GE).
(§10) Antibodies and chemicals. The inventors used the following commercial primary antibodies in this study: rabbit polyclonal anti-HIF1α (Abcam, Ab2185), rabbit polyclonal anti-HIF2α (Novus, NB100-122), rabbit monoclonal anti-HIF1α proline 564 (Cell signaling, 3434S), and mouse monoclonal anti-tubulin (Sigma, T5168). […] Sources of chemicals not provided elsewhere were Thermo Fisher Scientific or Sigma-Aldrich.

[6] = system: prolyl hydroxylated HIF1α; conditions: HepG2 cells, 10 μM MG132 for 1 h then 250 μM manganese for 4 h
Method: as §7, §9, §10

[7] = system: HIF2α; conditions: HepG2 cells, 250 μM manganese; evident at 4 hours, baseline by 24 h
Method: as §7, §9, §10

**Q.** What does the source list for `O.O.O.O.[Cl][Mn][Cl]` [manganese, manganeseCl2.4H2O]?
**A.** HIF1α mRNA levels after manganese [1]: not elevated; HIF2α mRNA levels after manganese [2]: not elevated; Relative expression after manganese, SLC30A10 transcript ([3]; 250 μM manganese for 4 h, expression without manganese normalized to 1, mean±SE, N=4): 2.40 ± 0.28; Time at which SLC30A10 levels returned to baseline ([3]; 250 μM manganese, time course): ≤ 24 h; Time to statistically significant increase of SLC30A10 ([3]; 250 μM manganese, time course): ≤ 2 h; Lowest manganese level at which SLC30A10 levels were elevated ([3]; dose response, 4 h): 62.5 µM; Relative expression after manganese, VEGF transcript [4]: 2.41 ± 0.29; HIF1α protein levels after manganese [5]: increased; Signals for prolyl hydroxylated HIF1α in manganese-treated condition [6]: substantially lower; HIF2α protein levels after manganese [7]: increased
